In patent publication US6221914A, “Sulfonamide bridging compounds that inhibit tryptase activity” (Array Biopharma Inc., priority 1998, dated 2001):

Columns and labels:
Assay type in all cases: biochemical
[1] = molecular target: T1, Bovine pancreatic Trypsin (Bos taurus, UniProt P00760); experiment: Ki determination, bovine pancreatic trypsin (N-a-Benzoyl-L-Arg-pNA); details: 50 mM Tris-HCl, pH 8.2, 20 mM CaCl2; read-out: Experimentally Determined Ki, Trypsin
T1 construct: from tissue; host or cells: bovine pancreas
T1 sequence (P00760 24-246): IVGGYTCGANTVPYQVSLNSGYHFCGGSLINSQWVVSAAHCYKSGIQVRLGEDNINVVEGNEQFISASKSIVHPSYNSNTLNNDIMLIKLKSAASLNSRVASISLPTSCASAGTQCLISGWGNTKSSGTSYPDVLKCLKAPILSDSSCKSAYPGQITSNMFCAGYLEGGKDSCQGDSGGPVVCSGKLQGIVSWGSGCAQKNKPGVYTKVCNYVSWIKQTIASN
Method in brief: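 TPCK-treated bovine trypsin was preincubated with compound for 15 min at 37° C in 50 mM Tris-HCl pH 8.2, 20 mM CaCl2, then N-a-Benzoyl-L-Arg-pNA was added and p-nitroaniline read at 405 nm. Ki came from the tight-binding equation, with [E]o from active-site titration and a substrate correction, or from competitive-inhibitor equations when Ki >>[E]o.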

[2] = molecular target: T2, Human Neutrophil elastase (Homo sapiens, UniProt P08246); experiment: Ki determination, human neutrophil elastase (pyroGlu-Pro-Val-pNA); details: 100 mM Tris-HCl, pH 8.3, 0.96 M NaCl, 1% BSA; read-out: Experimentally Determined Ki, Elastase
T2 construct: from tissue; host or cells: human neutrophils
T2 sequence (P08246 30-267): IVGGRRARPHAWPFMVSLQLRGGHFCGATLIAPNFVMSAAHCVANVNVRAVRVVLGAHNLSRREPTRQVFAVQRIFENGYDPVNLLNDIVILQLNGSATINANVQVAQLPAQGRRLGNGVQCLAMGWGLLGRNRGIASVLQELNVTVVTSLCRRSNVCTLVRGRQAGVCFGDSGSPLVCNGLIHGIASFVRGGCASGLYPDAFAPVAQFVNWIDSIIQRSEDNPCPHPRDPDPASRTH
Method in brief: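 Enzyme preincubated with compound 15 min at 37° C. in 100 mM Tris-HCl pH 8.3, 0.96 M NaCl, 1% BSA, then pyroGlu-Pro-Val-pNA added; p-nitroaniline release read at 405 nm. Ki from tight-binding equation (active-site-titrated enzyme) corrected for substrate, or competitive-inhibitor equation when Ki >> [E]o.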

Human plasma plasmin = molecular target: T3, Human plasma plasmin (Homo sapiens, UniProt P00747); experiment: Ki determination, human plasma plasmin (Tosyl-Gly-Pro-Lys-pNA); details: 100 mM Tris-HCl, pH 7.4, 100 mM NaCl, 0.05% Triton X-100; read-out: Experimentally Determined Ki, Plasmin
T3 construct: from tissue; host or cells: human plasma
Method in brief: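 Enzyme preincubated with inhibitor 15 min at 37° C. in 100 mM Tris-HCl pH 7.4, 100 mM NaCl, 0.05% Triton X-100, then Tosyl-Gly-Pro-Lys-pNA added; p-nitroaniline release followed at 405 nm. Ki from tight-binding equation (active-site-titrated [E]o), corrected for substrate, or competitive-inhibitor equation when Ki >>[E]o.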

Human plasma factor Xa = molecular target: T4, Human plasma factor Xa (Homo sapiens, UniProt P00742); experiment: Ki determination, human plasma factor Xa (N-Benzoyl-Ile-Glu-Gly-Arg-pNA); details: 50 mM Tris-HCl, pH 7.8, 200 mM NaCl, 0.05% BSA; read-out: Experimentally Determined Ki, Factor Xa
T4 construct: from tissue; host or cells: human plasma
Method in brief: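 Enzyme preincubated with compound 15 min at 37° C in 50 mM Tris-HCl pH 7.8, 200 mM NaCl, 0.05% BSA, then N-Benzoyl-Ile-Glu-Gly-Arg-pNA added and p-nitroaniline read at 405 nm. Ki from tight-binding equation with active-site-titrated enzyme, corrected for substrate, or from competitive-inhibitor equations when Ki >> [E]o.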

[3] = molecular target: T5, Human Neutrophil Cathepsin G (Homo sapiens, UniProt P08311); experiment: Ki determination, human neutrophil cathepsin G (N-Suc-Ala-Ala-Pro-Phe-pNA); details: 625 mM Tris-HCl, pH 7.5, 2.5 mM MgCl2, 0.125% Brij 35; read-out: Experimentally Determined Ki, Cathepsin G
T5 construct: from tissue; host or cells: human neutrophils
T5 sequence (P08311 21-255): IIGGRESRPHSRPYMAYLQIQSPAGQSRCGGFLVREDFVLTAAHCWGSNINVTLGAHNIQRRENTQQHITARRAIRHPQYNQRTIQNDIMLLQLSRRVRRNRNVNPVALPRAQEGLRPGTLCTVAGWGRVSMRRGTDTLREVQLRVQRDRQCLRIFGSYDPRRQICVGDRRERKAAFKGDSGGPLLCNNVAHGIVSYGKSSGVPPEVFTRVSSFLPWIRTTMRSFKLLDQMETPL
Method in brief: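 Cathepsin G preincubated with test compound 15 min at 37° C, then N-Suc-Ala-Ala-Pro-Phe-pNA added in 625 mM Tris-HCl pH 7.5, 2.5 mM MgCl2, 0.125% Brij 35. p-Nitroaniline read at 405 nm.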

[4] = molecular target: T6, Bovine Pancreatic Chymotrypsin (Bos taurus, UniProt P00766); experiment: Ki determination, bovine pancreatic chymotrypsin (N-Suc-Ala-Ala-Pro-Phe-pNA); details: 100 mM Tris-HCl, pH 7.8, 10 mM CaCl2; read-out: Experimentally Determined Ki, Chymotrypsin
T6 construct: from tissue; host or cells: bovine pancreas
Method in brief: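 Enzyme was preincubated with test compound for 15 min at 37° C before N-Suc-Ala-Ala-Pro-Phe-pNA was added, in 100 mM Tris-HCl, pH 7.8, 10 mM CaCl2. p-Nitroaniline release was read at 405 nm. Ki came from the tight-binding equation with [E]o set by active-site titration and corrected for substrate, or from competitive-inhibitor equations when Ki >>[E]o.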

T3 sequence (P00747 581-810 limits assumed): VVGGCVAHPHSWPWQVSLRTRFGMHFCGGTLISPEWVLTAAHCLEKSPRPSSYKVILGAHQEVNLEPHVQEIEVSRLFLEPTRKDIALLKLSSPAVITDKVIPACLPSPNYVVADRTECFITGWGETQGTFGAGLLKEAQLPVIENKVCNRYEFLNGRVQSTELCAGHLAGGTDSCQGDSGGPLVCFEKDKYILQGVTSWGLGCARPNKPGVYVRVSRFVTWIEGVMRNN
T3 sequence (P00747 97-580 partner limits assumed): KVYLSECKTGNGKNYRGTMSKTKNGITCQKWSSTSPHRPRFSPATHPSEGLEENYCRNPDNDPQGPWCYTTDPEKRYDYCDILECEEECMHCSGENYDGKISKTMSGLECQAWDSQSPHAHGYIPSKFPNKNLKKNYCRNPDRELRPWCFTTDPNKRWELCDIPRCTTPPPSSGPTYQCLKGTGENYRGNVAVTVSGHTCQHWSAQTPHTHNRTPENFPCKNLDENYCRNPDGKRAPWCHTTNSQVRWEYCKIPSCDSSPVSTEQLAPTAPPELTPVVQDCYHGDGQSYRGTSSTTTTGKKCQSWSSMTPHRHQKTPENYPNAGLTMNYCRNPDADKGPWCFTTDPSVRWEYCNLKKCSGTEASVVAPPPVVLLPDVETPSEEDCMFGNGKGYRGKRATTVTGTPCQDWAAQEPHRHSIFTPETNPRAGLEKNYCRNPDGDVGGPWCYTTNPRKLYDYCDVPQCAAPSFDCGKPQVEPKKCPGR
T4 sequence (P00742 235-488 limits assumed): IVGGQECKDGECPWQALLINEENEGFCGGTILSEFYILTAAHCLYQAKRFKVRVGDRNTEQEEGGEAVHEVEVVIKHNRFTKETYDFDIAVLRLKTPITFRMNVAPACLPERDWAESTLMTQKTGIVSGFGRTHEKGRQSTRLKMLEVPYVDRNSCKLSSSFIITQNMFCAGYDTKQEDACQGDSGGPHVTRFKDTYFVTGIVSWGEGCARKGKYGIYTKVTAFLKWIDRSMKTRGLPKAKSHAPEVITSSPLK
T4 sequence (P00742 41-179 partner limits assumed): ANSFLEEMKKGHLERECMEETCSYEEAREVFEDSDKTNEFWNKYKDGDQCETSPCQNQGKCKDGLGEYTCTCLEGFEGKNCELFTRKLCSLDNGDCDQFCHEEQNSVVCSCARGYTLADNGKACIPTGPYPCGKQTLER

Compound	Ki [1] [µM]	Ki [2] [µM]	Ki (Human plasma plasmin) [µM]	Ki (Human plasma factor Xa) [µM]	Ki [3] [µM]	Ki [4] [µM]
N=C(N)c1ccc2[nH]c(CC(=O)NCc3ccc(OCCCOc4ccc(CNC(=O)Cc5nc6cc(C(=N)N)ccc6[nH]5)cc4)cc3)nc2c1 [Example 107, 2-(5-Carbamimidoyl-1H-benzoimidazol-2-yl)-N-{4,-[3-(4-{2-(5-carbamimidoyl-1H-benzoimidazol-2-yl)acetylaminol-methyl}-phenoxy)-propoxy]-benzyl}-acetamide]	4.8	> 100	2.1	27	> 100	26
N=C(N)c1ccc2[nH]c(CC(=O)NCc3ccc(OCCCCCOc4ccc(CNC(=O)Cc5nc6cc(C(=N)N)ccc6[nH]5)cc4)cc3)nc2c1 [Example 108]	3.6	> 100	1.4	19	> 100	> 100
N=C(N)c1ccc2[nH]c(CC(=O)NCc3ccc(OCCCCOc4ccc(CNC(=O)Cc5nc6cc(C(=N)N)ccc6[nH]5)cc4)cc3)nc2c1 [Example 109]	11.4	> 100	0.11	40	> 100	14.7
N=C(N)c1ccc2sc(C(=O)NCc3ccc(OCCCOc4ccc(CNC(=O)c5cc6cc(C(=N)N)ccc6s5)cc4)cc3)cc2c1 [Example 117, 1,3-Bis-{4-[(5-carbamidoyl-2-benzthiophenyl-carbamido)-methyl]-phenoxy}-propane]	13	> 100	50	59	> 100	40

The remaining lines, values ahead:

Ki [1] [µM]	Ki [2] [µM]	Ki (Human plasma plasmin) [µM]	Ki (Human plasma factor Xa) [µM]	Ki [3] [µM]	Ki [4] [µM]	Compound
2.1	> 100	0.34	10	> 100	> 100	N=C(N)c1ccc(C(=O)NCc2ccc(OCCCOc3ccc(CNS(=O)(=O)c4cccc(C(=N)N)c4)cc3)cc2)cc1 [Example 86, 4-Carbamimidoyl-N-[4-(3-{4-[(3-carbamimidoyl-benzenesulfonylamino)-methyl]-phenoxy}-propoxy)-benzyl]-benzamide]
2.8	> 100	7.6	19	> 100	> 100	N=C(N)c1ccc(C(=O)NCc2ccc(OCCCOc3ccc(CNC(=O)c4ccc(CN)cc4)cc3)cc2)cc1 [Example 87, N-[4-(3-{4-[(4-Aminomethyl-benzoylamino)-methyl]-phenoxy}-propoxy)-benzyl]-4-carbamimidoyl-benzamide]
1.5	> 100	6.7	15	> 100	> 100	N=C(N)c1ccc(C(=O)NCc2ccc(OCC3(COc4ccc(CNC(=O)c5ccc(C(=N)N)cc5)cc4)CCC3)cc2)cc1 [Example 93, 1,1-Bis-{4-[(4-carbamimidoyl-benzoyl-amino)-methyl]-phenoxy-methyl}-cyclobutane]
0.15	> 100	0.74	> 100	> 100	18	N=C(N)c1ccc2cc(C(=O)NCc3ccc(OCCOc4ccc(CNC(=O)c5ccc6cc(C(=N)N)ccc6c5)cc4)cc3)ccc2c1 [Example 100, 1,2-Bis-{4-[(6-carbamimidoylnaphthalene-2-carbonylamino)-methyl]-phenoxy}-ethane]
